In the experiment the test system is hippocampal neurons. The experiment is described as follows: Neurite outgrowth assay in cultured E18 rat hippocampal neurons (48 h, βIII-tubulin staining, Cellomics ArrayScan). In kind it is cell-based. Conditions: Hippocampal neuron; for activity at 0.015625 µg/mL: 15.625 ng/mL compound; for activity at 0.015625 µg/mL / activity at 0.03125 µg/mL / activity at 0.0625 µg/mL / activity at 0.125 µg/mL / activity at 0.25 µg/mL / activity at 0.5 µg/mL: 48 hours, read-out: neurite growth length (% NTL); for activity at 0.03125 µg/mL: 31.25 ng/mL compound; for activity at 0.0625 µg/mL: 62.5 ng/mL compound; for activity at 0.125 µg/mL: 125 ng/mL compound; for activity at 0.25 µg/mL: 250 ng/mL compound; for activity at 0.5 µg/mL: 500 ng/mL compound; for EC200 / EC300: 48 h, estimated using linear interpolation; for EC200: 200% effective dose, read-out: ED200%; for EC300: 300% effective dose, read-out: ED300%. On the procedure:
Pre-coating culture plates: On the day before the experiment, 96-well plates were pre-coated by plating 50 μL of poly-D-lysine solution (PDL, 0.5 mg/mL) in each well. The next morning, the plates were washed four or five times with HBSS or PBS (150 μL/rinse), then left in buffer until cell plating
Preparing the cells: A timed pregnant rat carrying E18 embryos was euthanized using an IACUC approved method. In a laminar flow hood, the embryos were removed and placed in a petri dish containing Hank's Balanced Salt Solution (HBSS) with 20 mM HEPES, pH 7.3. Pup brains were dissected (see Meberg et al., Methods cell Biol 71:111-127 (2003)) and hippocampi were collected in 15 mL a conical tube containing Hibernate E with SM1 (2% v/v).
Dissociation media was prepared by combining 4.5 mL of Hibernate E (without SM1) with 0.5 mL of trypsin and 100 μl of DNAse solution. The medium over the hippocampi was carefully removed and replaced with dissociation solution, then incubated at 37° C. for 15-20 minutes, occasionally swirling the tube.
Using flame polished cotton plugged Pasteur pipettes, the dissociation media was removed, and then 5 mL of Hibernate E containing SM1 were added. The tube was swirled to thoroughly wash the tissue. The tissue was allowed to settle to the bottom of the tube, and the rinse solution was carefully removed. This step was repeated 5 times to dilute out trypsin and DNAse and remove any debris from lysed cells.
The final rinse media was removed from the tube and 1 pipette-full (1-2 mL) of Hibernate E with SM1 was added. Using the flame-polished Pasteur pipette (pre-wetted with rinse media), the tube was triturated until all cells had dissociated and no visible chunks of tissue remained. Fewer than ten triturations were typically performed. The volume was adjusted to 8-12 mL using Hibernate E containing SM1, the well was mixed and cell concentration was determined.
Plating: The cells were diluted in culture media (NbActiv4 Cell-culture media) to a final concentration of 10,000 cells/mL. The HBSS was aspirated from PDL coated plates, and 150 μL of cell solution was loaded in the middle 48 wells at 1500 cells per well. Water was loaded in the outer wells to decrease evaporation from edge wells. Cells were allowed to adhere for 2 hours in tissue culture incubator prior to treatment.
Treatment: Compounds were diluted to various concentrations to provide 6 dose response concentrations of 500 ng/mL, 250 ng/mL, 125 ng/mL, 62.5 ng/mL, 31.25 ng/mL, and 15.625 ng/mL. The plates were cultured for 48 hours, exposed to the compound at the various dose response concentrations.
Fixing the cultures: The culture medium was removed from the plates and immediately replaced with 100-200 μL of warm (37° C.) 4% paraformaldehyde (“PFA”) solution in phosphate-buffered saline (“PBS”). The cells were fixed for 15-20 minutes at room temperature, and then rinsed with PBS (200 μl/well×3).
Staining and imaging: The PBS was removed and replaced with 100 μL of blocking/permeabilization buffer (PBS, 0.2% fish gelatin, 0.03% Triton X-100, 0.02% NaN3), then incubated overnight at 4° C. To this was added 100 μL of primary antibody solution (mouse anti-Beta III tubulin in blocking buffer) and incubate overnight at 4° C. The wells were rinsed with PBS (200 μl×3), which was then removed and replaced with 100 μL of secondary antibody solution (Goat anti-mouse Alexa 488, 10 μg/ml Hoechst 33342, 0.2% fish gelatin, 0.02% azide, in PBS). The plate was shaken gently on a rotating shaker for 2 hours, then rinsed with PBS (200 μl×5).
The plate was imaged using a Cellomics ArrayScan VTI in 2 different channels for nuclear staining (Hoechst) and cell body/neurite staining (βIII-tubulin). Typically, nine fields per well were imaged with a 5× objective and automatically traced by the Neuronal Profiling Bioapplication. To get reproducible results, at least 200-300 valid neurons were measured per condition. […]

Drawing on patent US11981660B2, “Neurite outgrowth promoters and uses thereof” (UNIVERSITY OF MIAMI, priority 2018, dated 2024), this text covers activity, EC200 and EC300 for twelve compounds.

On to `CCC(C)C1=N[C@@H](CCCCN2C[C@@H](CC(C)C)N(CC3CCC(C)CC3)C2=S)CN1` (stereo partly drawn) [Compound A16, (4R)-1-(4-((4S)-2-(sec-butyl)-4,5-dihydro-1H-imidazol-4-yl)butyl)-4-isobutyl-3-((4-methylcyclohexyl)methyl)imidazolidine-2-thione], for which the activity at 0.015625 µg/mL is 131%, the activity at 0.03125 µg/mL was found to be 216%, the activity at 0.0625 µg/mL was determined as 254% and the activity at 0.125 µg/mL is 268%. For the same compound, the activity at 0.25 µg/mL is 236%, the activity at 0.5 µg/mL was 264%, the EC200 is 0.01 µM and the EC300 is 0.053 µM.
On to `CC(C)C[C@@H]1CN(CCCC[C@H]2CNC(CCCc3ccccc3)=N2)C(=S)N1CC1CCC(C)CC1` (stereo partly drawn) [Compound A18, (R)-4-isobutyl-3-((4-methylcyclohexyl)methyl)-1-(4-((S)-2-(3-phenylpropyl)-4,5-dihydro-1H-imidazol-4-yl)butyl)imidazolidine-2-thione], for which the activity at 0.015625 µg/mL amounted to 145%, the activity at 0.03125 µg/mL was found to be 197%, the activity at 0.0625 µg/mL was 247% and the activity at 0.125 µg/mL amounted to 257%. In addition, the activity at 0.25 µg/mL was determined as 240%, the activity at 0.5 µg/mL amounted to 224%, the EC200 is 0.025 µM and the EC300 was 0.461 µM.
For `CCC(C)C1=N[C@@H](CCCCN2C[C@@H](c3ccccc3)N(CCCC(C)C)C2=S)CN1` (stereo partly drawn) [Compound A19, (4R)-1-(4-((4S)-2-(sec-butyl)-4,5-dihydro-1H-imidazol-4-yl)butyl)-3-(4-methylpentyl)-4-phenylimidazolidine-2-thione], the activity at 0.015625 µg/mL worked out at 121%, the activity at 0.03125 µg/mL is 179%, the activity at 0.0625 µg/mL stood at 253% and the activity at 0.125 µg/mL came out at 264%. Besides, the activity at 0.25 µg/mL stood at 266% and the activity at 0.5 µg/mL is 276%.
Take `CCC(C)C1=N[C@@H](CCCCN2C[C@@H](c3ccccc3)N(CC3CCC(C)CC3)C2=S)CN1` (stereo partly drawn) [Compound A25, (4R)-1-(4-((4S)-2-(sec-butyl)-4,5-dihydro-1H-imidazol-4-yl)butyl)-3-((4-methylcyclohexyl)methyl)-4-phenylimidazolidine-2-thione]: the activity at 0.015625 µg/mL stood at 190%, the activity at 0.03125 µg/mL turned out to be 256%, the activity at 0.0625 µg/mL amounted to 297% and the activity at 0.125 µg/mL was 302%. Moreover, the activity at 0.25 µg/mL came to 256%, the activity at 0.5 µg/mL turned out to be 280%, the EC200 was 0.005 µM and the EC300 was 0.054 µM.
With `CC(C)CCCN1C(=S)N(CCCC[C@H]2CNC(C3CCCC3)=N2)C[C@H]1c1ccccc1` [Compound A20, (R)-1-(4-((S)-2-cyclopentyl-4,5-dihydro-1H-imidazol-4-yl)butyl)-3-(4-methylpentyl)-4-phenylimidazolidine-2-thione], the activity at 0.015625 µg/mL is 174%, the activity at 0.03125 µg/mL was 234%, the activity at 0.0625 µg/mL turned out to be 280% and the activity at 0.125 µg/mL came to 249%. In addition, the activity at 0.25 µg/mL turned out to be 278% and the activity at 0.5 µg/mL was 273%.
As for `CC(C)CCCN1C(=S)N(CCCC[C@H]2CNC(C3CCCC3)=N2)C[C@H]1CC(C)C` [Compound A11, (R)-1-(4-((S)-2-cyclopentyl-4,5-dihydro-1H-imidazol-4-yl)butyl)-4-isobutyl-3-(4-methylpentyl)imidazolidine-2-thione], the activity at 0.015625 µg/mL amounted to 135%, the activity at 0.03125 µg/mL came to 215%, the activity at 0.0625 µg/mL is 266% and the activity at 0.125 µg/mL is 273%. Also, the activity at 0.25 µg/mL is 264% and the activity at 0.5 µg/mL is 256%.
Turning to `CCC(C)C1=N[C@@H](CCCCN2C[C@@H](c3ccccc3)N(CCC3CCCCC3)C2=S)CN1` (stereo partly drawn) [Compound A22, (4R)-1-(4-((4S)-2-(sec-butyl)-4,5-dihydro-1H-imidazol-4-yl)butyl)-3-(2-cyclohexylethyl)-4-phenylimidazolidine-2-thione], the activity at 0.015625 µg/mL amounted to 139%, the activity at 0.03125 µg/mL stood at 201%, the activity at 0.0625 µg/mL is 257% and the activity at 0.125 µg/mL came to 246%. In addition, the activity at 0.25 µg/mL stood at 222% and the activity at 0.5 µg/mL came to 228%.
Turning to `CC(C)CCCN1C(=S)N(CCCC[C@H]2CNC(CCCc3ccccc3)=N2)C[C@H]1CC(C)C` [Compound A12, (R)-4-isobutyl-3-(4-methylpentyl)-1-(4-((S)-2-(3-phenylpropyl)-4,5-dihydro-1H-imidazol-4-yl)butyl)imidazolidine-2-thione], the activity at 0.015625 µg/mL came to 127%, the activity at 0.03125 µg/mL is 145%, the activity at 0.0625 µg/mL was 194% and the activity at 0.125 µg/mL is 237%. The activity at 0.25 µg/mL is 266% and the activity at 0.5 µg/mL amounted to 240%.
For `CCC(C)C1=N[C@@H](CCCCN2C[C@@H](C)N(CC3CCC(C)CC3)C2=S)CN1` (stereo partly drawn) [Compound A7, (4R)-1-(4-((4S)-2-(sec-butyl)-4,5-dihydro-1H-imidazol-4-yl)butyl)-4-methyl-3-((4-methylcyclohexyl)methyl)imidazolidine-2-thione], the activity at 0.015625 µg/mL is 97%, the activity at 0.03125 µg/mL is 135%, the activity at 0.0625 µg/mL is 150% and the activity at 0.125 µg/mL is 166%. The activity at 0.25 µg/mL worked out at 267% and the activity at 0.5 µg/mL was determined as 294%.
`CCC(C)C1=N[C@@H](CCCCN2C[C@@H](CC(C)C)N(CCCC(C)C)C2=S)CN1` (mixture of isomers) [Compound A10, (4R)-1-(4-((4S)-2-(sec-butyl)-4,5-dihydro-1H-imidazol-4-yl)butyl)-4-isobutyl-3-(4-methylpentyl)imidazolidine-2-thione]: the activity at 0.015625 µg/mL turned out to be 123%, the activity at 0.03125 µg/mL stood at 180%, the activity at 0.0625 µg/mL was determined as 223% and the activity at 0.125 µg/mL turned out to be 254%. Besides, the activity at 0.25 µg/mL was 259% and the activity at 0.5 µg/mL worked out at 240%.
`CC(C)C[C@@H]1CN(CCCC[C@H]2CNC(CCCc3ccccc3)=N2)C(=S)N1CCC1CCCCC1` [Compound A15, (R)-3-(2-cyclohexylethyl)-4-isobutyl-1-(4-((S)-2-(3-phenylpropyl)-4,5-dihydro-1H-imidazol-4-yl)butyl)imidazolidine-2-thione]: the activity at 0.015625 µg/mL came to 114%, the activity at 0.03125 µg/mL was 135%, the activity at 0.0625 µg/mL is 199% and the activity at 0.125 µg/mL was determined as 201%. Further, the activity at 0.25 µg/mL was 267% and the activity at 0.5 µg/mL was found to be 247%.
`CCC(C)C1=N[C@@H](CCCCN2C[C@@H](C)N(CCC3CCCCC3)C2=S)CN1` (stereo partly drawn) [Compound A4, (4R)-1-(4-((4S)-2-(sec-butyl)-4,5-dihydro-1H-imidazol-4-yl)butyl)-3-(2-cyclohexylethyl)-4-methylimidazolidine-2-thione]: the activity at 0.015625 µg/mL was determined as 102%, the activity at 0.03125 µg/mL is 121%, the activity at 0.0625 µg/mL turned out to be 143% and the activity at 0.125 µg/mL is 196%. The activity at 0.25 µg/mL worked out at 246% and the activity at 0.5 µg/mL worked out at 358%.
